The source of these data is patent US10077261B2, “Imidazolin-5-one derivative useful as FASN inhibitors for the treatment of cancer” (Janssen Pharmaceutica NV, priority 2012, dated 2018).

A value given as a limit tells only on which side of the number the result lay.

The test addresses T1, hFASN enzyme (full length) (Homo sapiens, UniProt P49327).
T1 construct: 10 μL hFASN enzyme (full length, 300 ng, purified in house); made in house
Put plainly: Fatty Acid Synthase (FASN) inhibition scintillation proximity assay. The format is biochemical. To be noted: for inhibition at 10 µM: read-out: Human FASN % inhibition @ 10 μM, 10 μM test compound; for IC50: read-out: Human FASN pIC50 (converted). Summed up: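 Read-out relies on hydrophobic ³H-palmitate product, formed from ³H-acetyl-CoA and malonyl-CoA, binding streptavidin imaging beads, measured at 610±20 nm after at least 24 h. Full-length enzyme (300 ng) in phosphate buffer pH 7.5 with DTT; eight compound concentrations, 0.01–30 μM.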

T1 sequence (P49327 whole entry): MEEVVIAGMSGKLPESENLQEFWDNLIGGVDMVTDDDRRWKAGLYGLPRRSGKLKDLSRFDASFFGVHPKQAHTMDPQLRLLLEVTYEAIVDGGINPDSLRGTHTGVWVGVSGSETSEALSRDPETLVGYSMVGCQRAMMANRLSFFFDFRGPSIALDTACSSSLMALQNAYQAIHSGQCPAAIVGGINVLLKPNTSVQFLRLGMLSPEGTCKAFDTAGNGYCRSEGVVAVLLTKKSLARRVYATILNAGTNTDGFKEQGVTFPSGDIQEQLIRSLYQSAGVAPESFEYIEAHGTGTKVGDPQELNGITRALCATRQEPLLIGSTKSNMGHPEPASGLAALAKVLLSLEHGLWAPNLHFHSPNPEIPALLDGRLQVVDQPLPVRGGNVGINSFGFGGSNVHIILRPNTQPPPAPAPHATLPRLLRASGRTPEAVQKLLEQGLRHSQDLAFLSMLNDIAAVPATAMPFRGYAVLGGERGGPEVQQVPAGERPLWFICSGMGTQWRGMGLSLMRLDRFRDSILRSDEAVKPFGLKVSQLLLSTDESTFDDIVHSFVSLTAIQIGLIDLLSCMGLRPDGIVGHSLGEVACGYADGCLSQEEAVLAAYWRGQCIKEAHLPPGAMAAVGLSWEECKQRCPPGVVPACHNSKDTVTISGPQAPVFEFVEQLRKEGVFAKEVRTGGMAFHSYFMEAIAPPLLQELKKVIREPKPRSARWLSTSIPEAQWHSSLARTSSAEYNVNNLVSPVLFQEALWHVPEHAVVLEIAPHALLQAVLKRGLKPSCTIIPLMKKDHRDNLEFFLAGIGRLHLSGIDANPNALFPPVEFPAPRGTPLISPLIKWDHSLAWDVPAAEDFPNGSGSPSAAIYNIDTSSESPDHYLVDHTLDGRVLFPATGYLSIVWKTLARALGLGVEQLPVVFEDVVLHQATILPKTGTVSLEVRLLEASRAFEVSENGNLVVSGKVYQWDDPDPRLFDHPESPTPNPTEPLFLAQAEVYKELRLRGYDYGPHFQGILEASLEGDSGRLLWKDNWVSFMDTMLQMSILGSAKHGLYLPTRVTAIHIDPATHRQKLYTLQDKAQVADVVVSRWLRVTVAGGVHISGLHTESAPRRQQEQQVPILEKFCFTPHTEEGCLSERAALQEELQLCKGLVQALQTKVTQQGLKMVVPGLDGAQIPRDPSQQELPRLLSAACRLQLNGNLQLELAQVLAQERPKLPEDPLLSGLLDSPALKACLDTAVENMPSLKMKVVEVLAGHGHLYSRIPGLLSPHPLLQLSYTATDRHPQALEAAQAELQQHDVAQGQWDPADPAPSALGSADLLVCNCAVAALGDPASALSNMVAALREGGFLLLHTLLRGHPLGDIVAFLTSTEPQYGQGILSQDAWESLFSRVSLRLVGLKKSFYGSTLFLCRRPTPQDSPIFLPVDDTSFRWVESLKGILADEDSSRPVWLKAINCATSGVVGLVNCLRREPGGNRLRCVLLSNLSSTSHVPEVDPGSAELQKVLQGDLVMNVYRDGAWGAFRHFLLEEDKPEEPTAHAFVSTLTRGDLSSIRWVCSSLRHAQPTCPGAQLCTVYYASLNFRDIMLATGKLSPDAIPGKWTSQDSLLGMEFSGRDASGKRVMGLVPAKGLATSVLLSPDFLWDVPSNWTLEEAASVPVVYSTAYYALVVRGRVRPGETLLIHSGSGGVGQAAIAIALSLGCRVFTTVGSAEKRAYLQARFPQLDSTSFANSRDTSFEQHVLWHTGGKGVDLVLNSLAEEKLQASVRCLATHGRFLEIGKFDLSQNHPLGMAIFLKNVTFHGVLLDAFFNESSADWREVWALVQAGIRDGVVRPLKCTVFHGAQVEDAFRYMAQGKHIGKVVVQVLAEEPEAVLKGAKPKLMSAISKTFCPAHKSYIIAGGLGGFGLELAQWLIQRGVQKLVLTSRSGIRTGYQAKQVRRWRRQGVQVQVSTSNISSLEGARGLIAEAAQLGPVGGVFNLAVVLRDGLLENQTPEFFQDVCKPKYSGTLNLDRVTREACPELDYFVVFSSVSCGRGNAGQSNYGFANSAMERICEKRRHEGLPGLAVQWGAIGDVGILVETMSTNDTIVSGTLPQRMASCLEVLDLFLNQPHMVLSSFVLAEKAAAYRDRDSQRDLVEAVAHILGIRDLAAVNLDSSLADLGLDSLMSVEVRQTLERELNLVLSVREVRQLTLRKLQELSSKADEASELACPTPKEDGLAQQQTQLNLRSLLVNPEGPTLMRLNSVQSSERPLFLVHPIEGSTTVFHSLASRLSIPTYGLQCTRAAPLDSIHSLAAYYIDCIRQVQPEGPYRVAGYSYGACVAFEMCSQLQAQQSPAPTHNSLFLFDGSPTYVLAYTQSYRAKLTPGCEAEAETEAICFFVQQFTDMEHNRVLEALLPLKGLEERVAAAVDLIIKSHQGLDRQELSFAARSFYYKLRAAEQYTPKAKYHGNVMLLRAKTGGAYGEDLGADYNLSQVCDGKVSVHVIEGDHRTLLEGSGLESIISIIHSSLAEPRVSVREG

What is called inhibition is the relative decrease from the control value, in per cent. For `CN(C)CC(=O)N1CCC2(CC1)N=C(c1ccc(-c3ccc4[nH]ncc4c3)cc1)N(C[C@@H]1CCN(C(=O)C3CC3)C1)C2=O` [compound 165, 3-{[(3R)-1-(Cyclopropylcarbonyl)pyrrolidin-3-yl]methyl}-8-(N,N-dimethylglycyl)-2-[4-(1H-indazol-5-yl)phenyl]-1,3,8-triazaspiro[4.5]dec-1-en-4-one], the inhibition at 10 µM was 108% and the IC50 was 229 nM.
Take `CC(C)N1CCC2(CC1)N=C(c1ccc(-c3ccc4occc4c3)cc1)N(CC1CN(C(=O)C3CC3)C1)C2=O` [compound 166, 2-[4-(1-Benzofuran-5-yl)phenyl]-3-{[1-(cyclopropylcarbonyl)azetidin-3-yl]methyl}-8-(1-methylethyl)-1,3,8-triazaspiro[4.5]dec-1-en-4-one]: the inhibition at 10 µM was 71.6% and the IC50 was 3390 nM.
For the compound `CC(C)N1CCC2(CC1)N=C(c1ccc(-c3ccc4occc4c3)cc1)N(C[C@@H]1CCN(C(=O)C3CC3)C1)C2=O` [compound 167, 2-[4-(1-Benzofuran-5-yl)phenyl]-3-{[(3R)-1-(cyclopropylcarbonyl)pyrrolidin-3-yl]methyl}-8-(1-methylethyl)-1,3,8-triazaspiro[4.5]dec-1-en-4-one], the inhibition at 10 µM is 96.4% and the IC50 is 525 nM.
In the case of `O=C(C1CC1)N1CC[C@@H](CN2C(=O)C3(CCN(CCO)CC3)N=C2c2ccc(-c3ccc4occc4c3)cc2)C1` [compound 168, 2-[4-(1-Benzofuran-5-yl)phenyl]-3-{[(3R)-1-(cyclopropylcarbonyl)pyrrolidin-3-yl]methyl}-8-(2-hydroxyethyl)-1,3,8-triazaspiro[4.5]dec-1-en-4-one], the inhibition at 10 µM worked out at 108% and the IC50 was 145 nM.
Take `CC(C)N1CCC2(CC1)N=C(c1ccc(-c3ccc4c(cnn4C)c3)cc1)N(CC1CN(C(=O)C3CC3)C1)C2=O` [compound 169, 3-{[1-(Cyclopropylcarbonyl)azetidin-3-yl]methyl}-8-(1-methylethyl)-2-[4-(1-methyl-1H-indazol-5-yl)phenyl]-1,3,8-triazaspiro[4.5]dec-1-en-4-one]: the inhibition at 10 µM was 45.7% and the IC50 was more than 10000 nM.
`Cn1ncc2cc(-c3ccc(C4=NC5(CCN(CCO)CC5)C(=O)N4CC4CN(C(=O)C5CC5)C4)cc3)ccc21` [compound 170, 3-{[1-(Cyclopropylcarbonyl)azetidin-3-yl]methyl}-8-(2-hydroxyethyl)-2-[4-(1-methyl-1H-indazol-5-yl)phenyl]-1,3,8-triazaspiro[4.5]dec-1-en-4-one]: the inhibition at 10 µM is 55.6% and the IC50 was 7940 nM.
For `Cc1cc2cc(-c3ccc(C4=NC5(CCN(C(=O)C6CC6)CC5)C(=O)N4C[C@@H]4CCN(C(=O)C5CC5)C4)cc3)ccc2o1` [compound 171, 8-(Cyclopropylcarbonyl)-3-{[(3R)-1-(cyclopropylcarbonyl)pyrrolidin-3-yl]methyl}-2-[4-(2-methyl-1-benzofuran-5-yl)phenyl]-1,3,8-triazaspiro[4.5]dec-1-en-4-one], the inhibition at 10 µM turned out to be 107% and the IC50 was 214 nM.
Consider `Cc1cc2cc(-c3ccc(C4=NC5(CCN(C(=O)C(C)C)CC5)C(=O)N4C[C@@H]4CCN(C(=O)C5CC5)C4)cc3)ccc2o1` [compound 172, 3-{[(3R)-1-(Cyclopropylcarbonyl)pyrrolidin-3-yl]methyl}-2-[4-(2-methyl-1-benzofuran-5-yl)phenyl]-8-(2-methylpropanoyl)-1,3,8-triazaspiro[4.5]dec-1-en-4-one], for which the inhibition at 10 µM was 108% and the IC50 was 251 nM.
`Cc1cc2cc(-c3ccc(C4=NC5(CCN(CCO)CC5)C(=O)N4C[C@@H]4CCN(C(=O)C5CC5)C4)cc3)ccc2o1` [compound 173, 3-{[(3R)-1-(Cyclopropylcarbonyl)pyrrolidin-3-yl]methyl}-8-(2-hydroxyethyl)-2-[4-(2-methyl-1-benzofuran-5-yl)phenyl]-1,3,8-triazaspiro[4.5]dec-1-en-4-one]: the inhibition at 10 µM turned out to be 97% and the IC50 is 380 nM.
For `Cc1cc2cc(-c3ccc(C4=NC5(CCN(C(=O)CN(C)C)CC5)C(=O)N4C[C@@H]4CCN(C(=O)C5CC5)C4)cc3)ccc2o1` [compound 174, 3-{[(3R)-1-(Cyclopropylcarbonyl)pyrrolidin-3-yl]methyl}-8-(N,N-dimethylglycyl)-2-[4-(2-methyl-1-benzofuran-5-yl)phenyl]-1,3,8-triazaspiro[4.5]dec-1-en-4-one], the inhibition at 10 µM was 109% and the IC50 is 245 nM.
For the compound `Cc1cc2cc(-c3ccc(C4=NC5(CC5)C(=O)N4CC4CN(C(=O)C5CC5)C4)cc3)ccc2o1` [compound 178, 6-{[1-(Cyclopropylcarbonyl)azetidin-3-yl]methyl}-5-[4-(2-methyl-1-benzofuran-5-yl)phenyl]-4,6-diazaspiro[2.4]hept-4-en-7-one], the inhibition at 10 µM was 108% and the IC50 was 102 nM.
For `Cc1cc2cc(-c3ccc(C4=NC5(CC5)C(=O)N4CC4CN(C(=O)C5CC5)C4)cc3C)ccc2o1` [compound 179, 6-{[1-(Cyclopropylcarbonyl)azetidin-3-yl]methyl}-5-[3-methyl-4-(2-methyl-1-benzofuran-5-yl)phenyl]-4,6-diazaspiro[2.4]hept-4-en-7-one], the inhibition at 10 µM was 59.5% and the IC50 is 6310 nM.
For `Cc1cc(C2=NC3(CC3)C(=O)N2C[C@@H]2CCN(C(=O)C3CC3)C2)ccc1-c1ccc2occc2c1` [compound 180, 5-[4-(1-Benzofuran-5-yl)-3-methylphenyl]-6-{[(3R)-1-(cyclopropylcarbonyl)pyrrolidin-3-yl]methyl}-4,6-diazaspiro[2.4]hept-4-en-7-one] the same measures were 101% and 138 nM.
On to `CC(=O)N1CCC2(CC1)N=C(c1ccc(-c3ccc4sc(C)c(C)c4c3)cc1)N(C[C@@H]1CCN(C(=O)C3CC3)C1)C2=O` [compound 181, 8-Acetyl-3-{[(3R)-1-(cyclopropylcarbonyl)pyrrolidin-3-yl]methyl}-2-[4-(2,3-dimethyl-1-benzothiophen-5-yl)phenyl]-1,3,8-triazaspiro[4.5]dec-1-en-4-one], for which the inhibition at 10 µM was 109% and the IC50 was 123 nM.
`Cc1sc2ccc(-c3ccc(C4=NC5(CCN(C(=O)CN(C)C)CC5)C(=O)N4C[C@@H]4CCN(C(=O)C5CC5)C4)cc3)cc2c1C` [compound 182, 3-{[(3R)-1-(Cyclopropylcarbonyl)pyrrolidin-3-yl]methyl}-2-[4-(2,3-dimethyl-1-benzothiophen-5-yl)phenyl]-8-(N,N-dimethylglycyl)-1,3,8-triazaspiro[4.5]dec-1-en-4-one]: the inhibition at 10 µM was 104% and the IC50 is 138 nM.
On to `Cc1sc2ccc(-c3ccc(C4=NC5(CCN(C(=O)C(C)C)CC5)C(=O)N4C[C@@H]4CCN(C(=O)C5CC5)C4)cc3)cc2c1C` [compound 183, 3-{[(3R)-1-(Cyclopropylcarbonyl)pyrrolidin-3-yl]methyl}-2-[4-(2,3-dimethyl-1-benzothiophen-5-yl)phenyl]-8-(2-methylpropanoyl)-1,3,8-triazaspiro[4.5]dec-1-en-4-one], for which the inhibition at 10 µM is 109% and the IC50 was 138 nM.
